The record followed here is US20110313044A1, “Polymorphs of Suberoylanilide Hydroxamic Acid” (URQUIMA S.A., priority 2010, published 2011).

Data set [1] can be described thus: Physical stability of crystalline forms at room temperature (PXRD, DSC characterisation).
Description: The crystalline products obtained have been characterised by XPRD (FIG. 1 and Table 1) and DSC (FIG. 2).
The nature of data set [2]: physchem. To be noted: thermodynamic from solid.
The nature of data set [3]: Solubility test Form α vs Form I. To be noted: for solubility: thermodynamic from solid.
The nature of data set [4]: Hygroscopicity test. The format is physicochemical.

≈ marks a conversion by molar mass, not a printed value.

As usually defined, the solubility is the dissolved amount per volume that the medium holds.

As for `O=C(CCCCCCC(=O)Nc1ccccc1)NO` [Form III, suberoylanilide hydroxamic acid], the Polymorph stability entry in data set [1] was “stable at room temperature”.
On the same count and under the same terms, as for `O=C(CCCCCCC(=O)Nc1ccccc1)NO` [Form II, suberoylanilide hydroxamic acid], the entry is “unstable at room temperature”.
As to `O=C(CCCCCCC(=O)Nc1ccccc1)NO` [Form I, suberoylanilide hydroxamic acid], the solubility stood at 0.1 mg/mL (≈ 0.378 mM) in data set [2] (aqueous buffer) and 21.8 mg/mL (≈ 82.5 mM) in data set [2] (organic solvent or mixture).
With `O=C(CCCCCCC(=O)Nc1ccccc1)NO` [Form α, suberoylanilide hydroxamic acid], the solubility in data set [3] (HCl 2M, aqueous buffer) came to 0.19 mg/mL (≈ 0.719 mM); in data set [3] (methanol, organic solvent or mixture), 30 mg/mL (≈ 113 mM). Further, in data set [3] (methanol and HCl 2M, in words), the “Solubility versus Form I” value was “higher solubility”. In addition, the Polymorph stability result in data set [1] is given as “stable at room temperature”. For the same molecule, the Hygroscopicity entry in data set [4] is reported as “non-hygroscopic”.
